ChEMBL document CHEMBL1143712, “Structure-activity relationships of novel N-acyloxy-1,4-dihydropyridines as P-glycoprotein inhibitors” (Bioorg Med Chem, 2007)

How the values were obtained:
[1] = biological target: T1, ATP-dependent translocase ABCB1 (Mus musculus, UniProt P06795); experiment: Inhibition of P-glycoprotein in MDR mouse T lymphoma cells using rhodamine 123 assessed as ratio of fluorescent uptake relative to untreated control at 1 uM in MDR reversal assay by flow cytometry; format: cell-based
T1 sequence (P06795 whole entry): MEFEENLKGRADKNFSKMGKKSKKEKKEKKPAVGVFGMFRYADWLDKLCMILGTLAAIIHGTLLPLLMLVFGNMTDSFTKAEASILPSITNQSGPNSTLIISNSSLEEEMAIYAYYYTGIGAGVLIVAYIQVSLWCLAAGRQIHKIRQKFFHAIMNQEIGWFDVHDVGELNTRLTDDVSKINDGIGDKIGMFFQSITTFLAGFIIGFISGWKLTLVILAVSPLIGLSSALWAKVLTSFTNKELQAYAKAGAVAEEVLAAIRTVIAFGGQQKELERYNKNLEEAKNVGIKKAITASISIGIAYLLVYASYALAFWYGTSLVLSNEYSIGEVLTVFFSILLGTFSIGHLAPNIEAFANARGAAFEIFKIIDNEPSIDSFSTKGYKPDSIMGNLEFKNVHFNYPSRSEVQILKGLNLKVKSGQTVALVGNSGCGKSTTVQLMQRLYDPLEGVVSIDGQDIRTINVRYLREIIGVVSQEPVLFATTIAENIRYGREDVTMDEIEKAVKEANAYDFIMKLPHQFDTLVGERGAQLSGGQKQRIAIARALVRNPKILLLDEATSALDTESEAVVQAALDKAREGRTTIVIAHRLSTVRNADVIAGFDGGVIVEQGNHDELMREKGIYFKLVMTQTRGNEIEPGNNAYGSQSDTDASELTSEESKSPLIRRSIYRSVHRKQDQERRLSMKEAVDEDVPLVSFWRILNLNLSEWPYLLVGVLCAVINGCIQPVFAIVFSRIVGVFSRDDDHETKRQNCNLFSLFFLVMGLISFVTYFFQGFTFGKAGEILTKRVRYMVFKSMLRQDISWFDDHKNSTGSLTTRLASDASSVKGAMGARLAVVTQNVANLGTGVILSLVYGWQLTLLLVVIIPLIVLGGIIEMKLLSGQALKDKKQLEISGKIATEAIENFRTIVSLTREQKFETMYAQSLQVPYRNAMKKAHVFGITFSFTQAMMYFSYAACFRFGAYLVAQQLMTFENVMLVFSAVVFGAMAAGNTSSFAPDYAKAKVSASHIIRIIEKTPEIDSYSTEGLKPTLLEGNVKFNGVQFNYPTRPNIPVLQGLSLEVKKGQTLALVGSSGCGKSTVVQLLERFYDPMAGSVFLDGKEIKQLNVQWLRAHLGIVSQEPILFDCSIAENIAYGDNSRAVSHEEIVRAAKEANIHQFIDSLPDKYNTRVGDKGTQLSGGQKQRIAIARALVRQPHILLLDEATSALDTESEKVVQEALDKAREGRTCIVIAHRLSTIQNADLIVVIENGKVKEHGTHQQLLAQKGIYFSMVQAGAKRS

[2] = biological target: T1, ATP-dependent translocase ABCB1; experiment: Inhibition of P-glycoprotein in MDR mouse T lymphoma cells using rhodamine 123 assessed as ratio of fluorescent uptake relative to untreated control at 10 uM in MDR reversal assay by flow cytometry; format: cell-based

SMILES | Activity [1] | Activity [2]
CCOC(=O)C1=CN(C(=O)Oc2ccccc2)C=CC1c1ccc(C)cc1 (configuration not stated) | 1.04 | 3.09
CCOC(=O)C1=CN(C(=O)Oc2ccccc2)C=CC1c1ccccc1OC (configuration not stated) | 1.6 | 39.98
COc1ccccc1C1C=CN(C(=O)Oc2ccccc2)C=C1C(C)=O (configuration not stated) | 1.01 | 5.15

Second part, the molecule after the results:

Activity [1] | Activity [2] | SMILES
1.3 | 19.87 | CCOC(=O)C1=CN(C(=O)Oc2ccccc2)C=CC1c1ccc(OC)cc1 (configuration not stated)
1.41 | 3.58 | CC(=O)C1=CN(C(=O)Oc2ccccc2)C=CC1c1ccc(C)cc1 (configuration not stated)
1.81 | 7.1 | COc1ccc(C2C=CN(C(=O)Oc3ccccc3)C=C2C(C)=O)cc1 (configuration not stated)
